# Laboratory results taken from article doi:10.1101/2024.06.25.600598v1 (biorxiv, 2024).
# Structures can show the parent of a compound that is named as a salt. Numbered stars: 1 amine (or outer) side, 2 acyl side, 3 side chain; on linkers, the order of the positions; unused ones are H or OH. Bridge positions count the residues as written; N and C are the ends. Square brackets hold non-standard residues; d marks the D form. Side chains are listed from the residue outwards. Peptide text beside a SMILES is read from it. * marks the point of attachment. Ethylenediamine = C(CN[*:2])N[*:1]; Hyp = O=C(O)[C@@H]1C[C@@H](O)CN1; hArg = N=C(N)NCCCC[C@H](N)C(=O)O; Phg = N[C@H](C(=O)O)c1ccccc1; CO = O=C([*:1])[*:2]; Bn = c1ccc(C*)cc1; Mpa = O=C(O)CCS
# Target: T1, fibroblast activation protein (FAP; rhFAP, SLIN-tagged hFAP) (Homo sapiens, UniProt Q12884)
# T1 sequence (Q12884 35-760): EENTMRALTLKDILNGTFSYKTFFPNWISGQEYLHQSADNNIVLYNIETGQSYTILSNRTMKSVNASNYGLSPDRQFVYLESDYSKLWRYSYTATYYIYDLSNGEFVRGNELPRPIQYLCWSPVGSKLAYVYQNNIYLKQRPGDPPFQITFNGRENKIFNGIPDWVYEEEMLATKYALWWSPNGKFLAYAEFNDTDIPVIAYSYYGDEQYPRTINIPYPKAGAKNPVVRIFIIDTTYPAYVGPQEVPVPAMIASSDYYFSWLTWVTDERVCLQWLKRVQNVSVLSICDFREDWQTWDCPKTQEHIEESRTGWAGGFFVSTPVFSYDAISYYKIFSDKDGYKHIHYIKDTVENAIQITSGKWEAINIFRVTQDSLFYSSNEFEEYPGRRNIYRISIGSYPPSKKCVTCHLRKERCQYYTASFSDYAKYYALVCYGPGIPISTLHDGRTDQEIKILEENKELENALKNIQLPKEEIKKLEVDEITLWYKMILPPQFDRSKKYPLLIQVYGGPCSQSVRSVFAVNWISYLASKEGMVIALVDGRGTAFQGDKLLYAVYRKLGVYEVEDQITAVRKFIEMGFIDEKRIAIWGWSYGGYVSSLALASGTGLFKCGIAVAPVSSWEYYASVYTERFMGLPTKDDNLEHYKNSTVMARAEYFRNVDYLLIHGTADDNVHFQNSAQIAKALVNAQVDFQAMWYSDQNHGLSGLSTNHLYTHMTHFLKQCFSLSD
# Assay: biochemical
# Settings: not given
row,Compound,Ki [µM]
1,Cc1oc(=O)oc1COC(=O)C1=C([C@H]2CCCO2)S[C@@H]2[C@@H]([C@@H](C)O)C(=O)N12 [Faropenem daloxate],13.1
2,CC[N+](C)(C)c1cccc(O)c1 [Edrophonium (chloride)],35.3
3,CCC(=O)O[C@@H](O[P@](=O)(CCCCc1ccccc1)CC(=O)N1C[C@H](C2CCCCC2)C[C@H]1C(=O)O)C(C)C [Fosinopril (sodium)],11.6
4,Cc1c(-c2ccccc2)oc2c(C(=O)OCCN3CCCCC3)cccc2c1=O [Flavoxate (hydrochloride)],33.6
5,CC(=O)OCC1=C(C(=O)O)N2C(=O)[C@@H](NC(=O)CSC(=NC(C)C)NC(C)C)[C@H]2SC1 [Cefathiamidine],23.6
6,Cc1ccc(NC(=O)C2(c3ccc4c(c3)OC(F)(F)O4)CC2)nc1-c1cccc(C(=O)O)c1 [Lumacaftor],10.1
7,CC(C)(C)OC(=O)N[C@H]1CCCCC/C=C\[C@@H]2C[C@@]2(C(=O)NS(=O)(=O)C2CC2)NC(=O)[C@@H]2C[C@@H](OC(=O)N3Cc4cccc(F)c4C3)CN2C1=O [Danoprevir],19.3
8,COc1cc(C)c2c(Oc3cccc(C(F)(F)F)c3)c(OC)cc(NC(C)CCCN)c2n1 (centres unmarked) [Tafenoquine (Succinate)],16.3
9,N=C(N)NCCCC[C@@H]1NC(=O)CCSSC[C@@H](C(N)=O)NC(=O)[C@@H]2CCCN2C(=O)[C@H](Cc2c[nH]c3ccccc23)NC(=O)[C@H](CC(=O)O)NC(=O)CNC1=O [Eptifibatide] ([Mpa][hArg]GDWPC-NH2; disulfide 1-7),27.8
10,CC(C)C[C@H](NC(=O)CNC(=O)c1cc(Cl)ccc1Cl)B1OC(=O)C(CC(=O)O)(CC(=O)O)O1 [Ixazomib citrate],25.1
11,COc1ccc(C(=O)N2CCCC2=O)cc1 [Aniracetam],40.4
12,CC/C=C\C/C=C\C/C=C\C/C=C\C/C=C\CCCC(=O)O [Eicosapentaenoic Acid],15.8
13,CCCCc1nc(C)c(CC(=S)N(C)C)c(=O)n1Cc1ccc(-c2ccccc2-c2nnn[nH]2)cc1 [Fimasartan],14.6
14,CN(C)c1ccc2nc3ccc(=[N+](C)C)cc-3sc2c1 [Methylene blue (trihydrate)],19
15,O=C1c2c(O)ccc(O)c2C(=O)c2c(NCCNCCO)ccc(NCCNCCO)c21 [Mitoxantrone (dihydrochloride)],11.6
16,CC(=O)O[C@H]1C[C@@H]2CC[C@@H]3[C@H](CC[C@@]4(C)[C@H]3C[C@H]([N+]3(C)CCCCC3)[C@@H]4OC(C)=O)[C@@]2(C)C[C@@H]1N1CCCCC1 [Vecuronium (bromide)],25.8
17,CCOc1ccc2nc3cc(N)ccc3c(N)c2c1 [Ethacridine (lactate monohydrate)],14.4
18,Cn1c(CCCC(=O)O)nc2cc(N(CCCl)CCCl)ccc21 [Bendamustine],25
19,COC(=O)c1ccc2c(c1)NC(=O)/C2=C(\Nc1ccc(N(C)C(=O)CN2CCN(C)CC2)cc1)c1ccccc1 [Nintedanib esylate],27.7
20,CCCC[C@H](NC(C)=O)C(=O)N[C@H]1CC(=O)NCCCC[C@@H](C(=O)O)NC(=O)[C@H](Cc2c[nH]c3ccccc23)NC(=O)[C@H](CCCN=C(N)N)NC(=O)[C@@H](Cc2ccccc2)NC(=O)[C@H](Cc2cnc[nH]2)NC1=O [Bremelanotide (Acetate)],25
21,O=NN(CCCl)C(=O)NCCCl [Carmustine],17.1
22,CC[C@@H]1C(=O)N(C)c2cnc(Nc3ccc(C(=O)N[C@H]4CC[C@H](N5CCN(CC6CC6)CC5)CC4)cc3OC)nc2N1C(C)C [Volasertib],10.9
23,NCCCC[C@@H]1NC(=O)[C@@H](Cc2c[nH]c3ccccc23)NC(=O)[C@H](c2ccccc2)NC(=O)[C@@H]2C[C@@H](OC(=O)NCCN)CN2C(=O)[C@H](Cc2ccccc2)NC(=O)[C@H](Cc2ccc(OCc3ccccc3)cc2)NC1=O [Pasireotide (acetate)] (cyclo([Hyp]([CO-Ethylenediamine])[Phg][dW]KY(Bn)F)),19.9
24,COCC1=C(C(=O)OC(C)OC(=O)OC(C)C)N2C(=O)[C@@H](NC(=O)/C(=N\OC)c3csc(N)n3)[C@H]2SC1 (some centres unmarked) [Cefpodoxime Proxetil],34.6
25,CCOC(=O)[C@@](C)(N)Cc1ccc(O)c(O)c1 [Methyldopate],29.6

row,Compound,Ki [µM]
1,C=CCN1C[C@H](C(=O)N(CCCN(C)C)C(=O)NCC)C[C@@H]2c3cccc4[nH]cc(c34)C[C@H]21 [Cabergoline],17.5
2,NC(=O)c1cc[n+](CC2=C(C(=O)O)N3C(=O)[C@@H](NC(=O)[C@@H](c4ccccc4)S(=O)(=O)[O-])[C@H]3SC2)cc1 [Cefsulodin (sodium)],41.4
3,Nc1ccc2cc3ccc(N)cc3nc2c1 [Proflavine (hemisulfate)],26.7
4,NC(=O)c1cccc2cn(-c3ccc([C@@H]4CCCNC4)cc3)nc12 [Niraparib (tosylate)],16.3
5,NC(=NCc1ccccc1)NC(=O)c1nc(Cl)c(N)nc1N [Benzamil (hydrochloride)],35.3
6,CO/N=C(\C(=O)N[C@@H]1C(=O)N2C(C(=O)O)=C(CSC(=O)c3ccco3)CS[C@H]12)c1csc(N)n1 [Ceftiofur (sodium)],23
7,Cc1ncc(NC(=O)c2ccc(CN3CCN(C)CC3)c(C(F)(F)F)c2)cc1Nc1nccc(-c2cccnc2)n1 [Flumatinib (mesylate)],12.2
8,C=CC[N+]1([C@H]2C[C@H]3[C@@H]4CC[C@H]5C[C@H](OC(C)=O)[C@@H](N6CCCCC6)C[C@]5(C)[C@H]4CC[C@]3(C)[C@H]2OC(=O)CC)CCCCC1 [Rapacuronium bromide],14.1
9,CC1(C)S[C@@H]2[C@H](NC(=O)C(C(=O)Oc3ccc4c(c3)CCC4)c3ccccc3)C(=O)N2[C@H]1C(=O)O (some centres unmarked) [Carindacillin (sodium)],14.5
10,CCOC(=O)OC(C)OC(=O)[C@@H]1N2C(=O)[C@@H](NC(=O)[C@H](N)c3ccccc3)[C@H]2SC1(C)C (some centres unmarked) [Bacampicillin (hydrochloride)],12.7
11,NCc1ccccc1CC(=O)N[C@@H]1C(=O)N2C(C(=O)O)=C(CSc3nnnn3CC(=O)O)CS[C@H]12 [Ceforanide],10.7
12,CN1Cc2c(Cl)cc(Cl)cc2[C@H](c2cccc(S(=O)(=O)NCCOCCOCCNC(=O)NCCCCNC(=O)NCCOCCOCCNS(=O)(=O)c3cccc([C@@H]4CN(C)Cc5c(Cl)cc(Cl)cc54)c3)c2)C1 [Tenapanor],24.9
13,CC(C)C[C@H](NC(=O)CNC(=O)c1cc(Cl)ccc1Cl)B(O)O [Ixazomib],33
14,CCCc1nc(C)c2c(=O)[nH]c(-c3cc(S(=O)(=O)N4CCN(CC)CC4)ccc3OCC)nn12 [Vardenafil (hydrochloride)],39.7
15,CO[C@H]1/C=C/O[C@@]2(C)Oc3c(C)c(O)c4c(O)c(c(/C=N/N5CCN(C6CCCC6)CC5)c(O)c4c3C2=O)NC(=O)/C(C)=C\C=C\[C@H](C)[C@H](O)[C@@H](C)[C@@H](O)[C@@H](C)[C@H](OC(C)=O)[C@@H]1C [Rifapentine],11.9
16,CC(C)=CCOc1ccc(/C=C/C(=O)c2ccc(OCC=C(C)C)cc2OCC(=O)O)cc1 [Sofalcone],16
17,O=c1cc(-c2ccccc2)oc2cc(O)c(O)c(O)c12 [Baicalein],36.8
18,Cc1ccc(NC(=O)c2ccc(CN3CCN(C)CC3)cc2)cc1Nc1nc(-c2cccnc2)cs1 [Masitinib],43.9
19,COc1cc(NCc2ccc3nc(N)nc(N)c3c2C)cc(OC)c1OC [Trimetrexate],27.2
20,CC(C)(O/N=C(\C(=O)N[C@@H]1C(=O)N2C(C(=O)[O-])=C(C[n+]3ccccc3)CS[C@H]12)c1csc(N)n1)C(=O)O [Ceftazidime (pentahydrate)],20.8
21,COc1cc(C(=O)NS(=O)(=O)c2ccccc2C)ccc1Cc1cn(C)c2ccc(NC(=O)OC3CCCC3)cc12 [Zafirlukast],13.4
22,Nc1c2ccccc2nc2ccccc12 [9-Aminoacridine],12.4
23,Cc1nnc(SCC2=C(C(=O)O)N3C(=O)[C@@H](NC(=O)Cn4cc(Cl)c(=O)c(Cl)c4)[C@H]3SC2)s1 [Cefazedone],25.6
24,CNCc1ccc(-c2[nH]c3cc(F)cc4c3c2CCNC4=O)cc1 [Rucaparib],44.4
25,CO/N=C(\C(=O)N[C@@H]1C(=O)N2C(C(=O)O)=C(CSc3nnnn3C)CS[C@H]12)c1csc(N)n1 [Cefmenoxime (hydrochloride)],25.1

# Target: T1, fibroblast activation protein (FAP; rhFAP, SLIN-tagged hFAP)
# Assay: biochemical
# Settings: not given
# Remark: another data set of the same source
row,Compound,Ki [µM]
1,C=Cc1c(C)c2cc3nc(c(CC(=O)N[C@@H](CC(=O)O)C(=O)O)c4[nH]c(cc5nc(cc1[nH]2)C(C)=C5CC)c(C)c4C(=O)O)[C@@H](CCC(=O)O)[C@@H]3C [Talaporfin (sodium)],3
2,CCN1CCN(Cc2ccc(Nc3ncc(F)c(-c4cc(F)c5nc(C)n(C(C)C)c5c4)n3)nc2)CC1 [Abemaciclib (methanesulfonate)],0.8
3,COc1cc2/c(=N/c3ccc(Br)cc3F)nc[nH]c2cc1OCC1CCN(C)CC1 [Vandetanib],9.4

# Target: T1, fibroblast activation protein (FAP; rhFAP, SLIN-tagged hFAP)
# Assay: not given
# Settings: 2 µM; inhibitor
row,Compound,"Relative inhibition (%), activity assay [%]"
1,C=Cc1c(C)c2cc3nc(c(CC(=O)N[C@@H](CC(=O)O)C(=O)O)c4[nH]c(cc5nc(cc1[nH]2)C(C)=C5CC)c(C)c4C(=O)O)[C@@H](CCC(=O)O)[C@@H]3C [Talaporfin (sodium)],12
2,CCN1CCN(Cc2ccc(Nc3ncc(F)c(-c4cc(F)c5nc(C)n(C(C)C)c5c4)n3)nc2)CC1 [Abemaciclib (methanesulfonate)],5
3,COc1cc2/c(=N/c3ccc(Br)cc3F)nc[nH]c2cc1OCC1CCN(C)CC1 [Vandetanib],29
